From article PMC7707092, “Discovery and characterization of ORM‐11372, a novel inhibitor of the sodium‐calcium exchanger with positive inotropic activity” (British Journal of Pharmacology, 2020)

How the values were obtained:
[1] = target: T1, L‐type Ca^2+ channel current (I CaL) (Homo sapiens, UniProt Q13936); assay: L‐type calcium current (I CaL), patch‐clamp in hiPSC‐derived cardiomyocytes; assay type: cell-based; details: hiPSC‐CMs, 0 mV, read-out: inhibition of inward I CaL
T1 construct: I CaL was recorded from hiPSC‐derived CMs; host or cells: Cor.4U hiPSC-derived cardiomyocytes
Description: (§1) Manual patch‐clamp recordings of membrane currents (I NCX, L‐type Ca^2+ channel current [I CaL], human cardiac sodium 1.5 current [I Na], and I hERG) were undertaken using either an Axopatch 200B or Axopatch ID amplifier (Molecular Devices, USA), using the whole‐cell configuration. Cells were at least initially (except when recording I Na) perfused with an extracellular solution consisting of (in mM) 143 NaCl, 4 KCl, 1.8 CaCl2, 1.2 MgCl2, 5 glucose, and 10 HEPES (pH 7.4 with NaOH; osmolarity adjusted to 301 ± 3 mOsm). A slightly modified version was used for the rat ventricular CMs (in mM: 144 NaCl, 0.4 NaH2PO4, 4.0 KCl, 1.8 CaCl2, 0.53 MgSO4, 5.5 glucose, and 5.0 HEPES). Patch pipettes were pulled with a P‐2000 or P‐97 micropipette puller (Sutter Instruments, USA) from borosilicate glass capillaries and had resistances of between 2 and 4 MΩ when filled with any of the pipette solutions (see below). The data were filtered at 1 or 2 kHz and digitized at 10 kHz with acquisition and analysis performed by use of pClamp software (Versions 8–10; Molecular Devices; RRID:SCR_011323).
I CaL was recorded from hiPSC‐derived CMs (at room temperature, n = 2) and rat ventricular myocytes at 1 μM (n = 3; 5 cells) and at 10 μM (n = 4; 6 cells) in an extracellular solution supplemented with 4‐aminopyridine (3 mM) at 37 °C. […]

[2] = system: human ventricular trabeculae
[3] = target: T2, L‐type Ca^2+ channel current (I CaL) (Rattus norvegicus, UniProt P22002); assay: L‐type calcium current (I CaL), patch‐clamp in rat ventricular myocytes; assay type: cell-based; details: for effect on calcium current (ICaL) at various test potentials: rat cardiomyocytes; for inhibition at 10 µM: rat ventricular CMs
T2 construct: the inward calcium current (ICaL) in isolated rat cardiomyocytes; endogenous in cells; host or cells: freshly isolated left ventricular cardiomyocytes of male Wistar rats
Description: as §1
I CaL was recorded from hiPSC‐derived CMs (at room temperature, n = 2) and rat ventricular myocytes at 1 μM (n = 3; 5 cells) and at 10 μM (n = 4; 6 cells) in an extracellular solution supplemented with 4‐aminopyridine (3 mM) at 37 °C. The pipette solution used for hiPSC‐derived CMs consisted (in mM) (pH 7.2; osmolarity adjusted to 293 mOsm) 110 KCl, 40 KOH, 20 TEACI, 3 MgATP, 10 EGTA, and 5 HEPES. The composition of the pipette solution used for rat CMs was (in mM) 125 CsCl, 20 TEACI, 5 MgATP, 10 EGTA, and 10 HEPES; the pH was adjusted to 7.2 using CsOH. I CaL was evoked by a 400‐ms depolarization process to 0 mV from a holding potential of −40 mV every 5 s or, in the case of the rat CMs, by 400 ms; depolarizations to potentials ranging from −35 to 55 mV occurred after a prepulse to −40 mV, from the holding potential of −80 mV.
The effect of ORM-11372 on the inward calcium current (ICaL) in isolated rat cardiomyocytes. ICaL current was evoked by 400 ms-long depolarizing voltage pulses to various test potentials, ranging from -35 mV to 55 mV. The holding potential was -80 mV. A short prepulse to -40 mV served to inactivate the Na+ current (the top part of the panel A). Examples of originals currents are shown in the lower part of panel A, before and after 1 µM ORM-11372 exposure in an isolated rat myocyte. Panels B and C illustrate the current-voltage relation (I-V curves) of ICaL in the absence and presence of 1 µM and 10 µM ORM-11372 (panels B and C, […]
are means ± standard errors of the means.
(1 picture or pasted object on this page, not shown here)

h5‐HT2A receptors = target: T3, h5‐HT2A receptors (Homo sapiens, UniProt P28223); assay: h5‐HT2A agonism and antagonism, intracellular calcium in recombinant HEK 293 cells; assay type: cell-based; details: maximum concentration 10 μM
T3 construct: host or cells: recombinant HEK 293
Protocol: Radioligand binding assays were performed at Eurofins Cerep SA (Celle L'Evescault, France), for testing the inhibition capacity of ORM‐11372 (at 10 μM with two replicates), in over 75 targets. These included receptors (e.g., human A1, A2A, and A3 adenosine receptors; α1 and α2 adrenoceptors; human β1–β3 adrenergic receptors; human D1, D2S, D3, D4.4, and D5 dopamine receptors; EGF and VEGF receptors; human M1–M5 muscarinic ACh receptors; human 5‐HT1A, 5‐HT2A, 5‐HT2B, 5‐HT2C, 5‐HT4e, 5‐HT5A, 5‐HT6, and 5‐HT7 receptors), ion channels (5‐HT3, Ca^2+, ATP‐dependent potassium channel [KATP], voltage‐dependent potassium channel [KV], small‐conductance calcium‐dependent potassium channel [SKCa], Na^+, and Cl^−), and transporters (adenosine, noradrenaline, dopamine, and 5‐HT). Follow‐up functional studies (with five concentrations and two replicates) were performed for 5‐HT2A receptors and noradrenaline transporter. Agonism and antagonism at h5‐HT2A receptors was explored in recombinant HEK 293 cells and intracellular calcium changes were detected using fluorimetry. Noradrenaline uptake was measured by carrying out scintillation counting of [^3H]noradrenaline incorporated into rat hypothalamus synaptosomes.

T2 sequence (P22002 whole entry, other chains not shown): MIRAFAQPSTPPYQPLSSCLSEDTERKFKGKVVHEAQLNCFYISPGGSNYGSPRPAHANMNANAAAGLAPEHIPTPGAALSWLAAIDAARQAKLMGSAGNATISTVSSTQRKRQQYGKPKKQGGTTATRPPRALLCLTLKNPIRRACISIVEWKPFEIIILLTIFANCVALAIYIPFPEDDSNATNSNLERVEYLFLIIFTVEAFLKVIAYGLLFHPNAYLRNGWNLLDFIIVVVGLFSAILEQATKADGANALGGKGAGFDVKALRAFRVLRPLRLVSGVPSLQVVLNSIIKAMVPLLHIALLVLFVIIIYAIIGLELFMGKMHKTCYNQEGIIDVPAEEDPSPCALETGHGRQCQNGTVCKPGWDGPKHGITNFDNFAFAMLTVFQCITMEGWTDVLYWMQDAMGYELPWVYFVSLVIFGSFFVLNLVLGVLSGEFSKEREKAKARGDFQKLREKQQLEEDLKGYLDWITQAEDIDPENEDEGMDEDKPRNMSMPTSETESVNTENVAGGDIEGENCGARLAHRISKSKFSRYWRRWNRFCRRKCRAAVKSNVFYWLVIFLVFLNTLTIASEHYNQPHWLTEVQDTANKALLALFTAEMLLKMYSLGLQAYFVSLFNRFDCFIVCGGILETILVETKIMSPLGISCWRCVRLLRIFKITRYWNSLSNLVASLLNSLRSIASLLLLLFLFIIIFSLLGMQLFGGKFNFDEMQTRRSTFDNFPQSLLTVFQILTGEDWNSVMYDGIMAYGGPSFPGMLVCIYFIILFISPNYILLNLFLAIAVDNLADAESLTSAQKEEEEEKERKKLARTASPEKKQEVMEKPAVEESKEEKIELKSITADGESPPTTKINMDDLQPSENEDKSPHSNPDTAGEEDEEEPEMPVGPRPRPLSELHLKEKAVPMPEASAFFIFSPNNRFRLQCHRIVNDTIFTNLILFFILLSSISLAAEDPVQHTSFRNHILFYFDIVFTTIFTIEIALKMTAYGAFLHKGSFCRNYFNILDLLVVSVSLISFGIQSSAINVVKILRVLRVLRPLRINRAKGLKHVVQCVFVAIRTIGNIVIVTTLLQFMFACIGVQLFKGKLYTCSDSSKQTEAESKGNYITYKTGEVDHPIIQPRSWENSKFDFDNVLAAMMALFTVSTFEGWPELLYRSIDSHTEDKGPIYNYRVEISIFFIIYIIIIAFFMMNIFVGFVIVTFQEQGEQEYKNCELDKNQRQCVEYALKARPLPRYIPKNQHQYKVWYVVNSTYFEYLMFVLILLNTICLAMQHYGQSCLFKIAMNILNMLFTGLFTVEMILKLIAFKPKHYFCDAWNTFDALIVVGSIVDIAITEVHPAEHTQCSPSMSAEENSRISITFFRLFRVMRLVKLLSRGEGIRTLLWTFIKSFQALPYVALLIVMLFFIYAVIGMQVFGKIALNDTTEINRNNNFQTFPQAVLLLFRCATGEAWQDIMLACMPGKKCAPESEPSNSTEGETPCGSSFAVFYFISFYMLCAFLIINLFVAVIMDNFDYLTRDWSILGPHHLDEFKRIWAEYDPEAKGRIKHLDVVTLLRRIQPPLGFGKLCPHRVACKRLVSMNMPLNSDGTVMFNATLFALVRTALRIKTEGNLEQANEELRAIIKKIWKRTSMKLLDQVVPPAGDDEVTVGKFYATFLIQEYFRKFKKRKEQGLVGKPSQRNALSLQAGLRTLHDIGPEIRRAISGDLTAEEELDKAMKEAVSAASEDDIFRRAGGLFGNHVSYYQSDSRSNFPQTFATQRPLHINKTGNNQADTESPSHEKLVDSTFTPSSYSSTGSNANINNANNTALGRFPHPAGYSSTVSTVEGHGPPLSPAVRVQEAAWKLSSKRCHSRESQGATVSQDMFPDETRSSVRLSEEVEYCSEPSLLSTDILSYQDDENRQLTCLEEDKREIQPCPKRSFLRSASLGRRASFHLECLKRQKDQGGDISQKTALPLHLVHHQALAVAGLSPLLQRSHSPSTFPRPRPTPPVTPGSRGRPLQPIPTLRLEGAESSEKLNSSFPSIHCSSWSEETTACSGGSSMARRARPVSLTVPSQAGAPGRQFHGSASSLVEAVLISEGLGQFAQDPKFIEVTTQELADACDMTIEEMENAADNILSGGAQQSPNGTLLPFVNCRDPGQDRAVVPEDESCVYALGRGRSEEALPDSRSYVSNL
T2 sequence (P54290 25-1091 partner, other chains not shown): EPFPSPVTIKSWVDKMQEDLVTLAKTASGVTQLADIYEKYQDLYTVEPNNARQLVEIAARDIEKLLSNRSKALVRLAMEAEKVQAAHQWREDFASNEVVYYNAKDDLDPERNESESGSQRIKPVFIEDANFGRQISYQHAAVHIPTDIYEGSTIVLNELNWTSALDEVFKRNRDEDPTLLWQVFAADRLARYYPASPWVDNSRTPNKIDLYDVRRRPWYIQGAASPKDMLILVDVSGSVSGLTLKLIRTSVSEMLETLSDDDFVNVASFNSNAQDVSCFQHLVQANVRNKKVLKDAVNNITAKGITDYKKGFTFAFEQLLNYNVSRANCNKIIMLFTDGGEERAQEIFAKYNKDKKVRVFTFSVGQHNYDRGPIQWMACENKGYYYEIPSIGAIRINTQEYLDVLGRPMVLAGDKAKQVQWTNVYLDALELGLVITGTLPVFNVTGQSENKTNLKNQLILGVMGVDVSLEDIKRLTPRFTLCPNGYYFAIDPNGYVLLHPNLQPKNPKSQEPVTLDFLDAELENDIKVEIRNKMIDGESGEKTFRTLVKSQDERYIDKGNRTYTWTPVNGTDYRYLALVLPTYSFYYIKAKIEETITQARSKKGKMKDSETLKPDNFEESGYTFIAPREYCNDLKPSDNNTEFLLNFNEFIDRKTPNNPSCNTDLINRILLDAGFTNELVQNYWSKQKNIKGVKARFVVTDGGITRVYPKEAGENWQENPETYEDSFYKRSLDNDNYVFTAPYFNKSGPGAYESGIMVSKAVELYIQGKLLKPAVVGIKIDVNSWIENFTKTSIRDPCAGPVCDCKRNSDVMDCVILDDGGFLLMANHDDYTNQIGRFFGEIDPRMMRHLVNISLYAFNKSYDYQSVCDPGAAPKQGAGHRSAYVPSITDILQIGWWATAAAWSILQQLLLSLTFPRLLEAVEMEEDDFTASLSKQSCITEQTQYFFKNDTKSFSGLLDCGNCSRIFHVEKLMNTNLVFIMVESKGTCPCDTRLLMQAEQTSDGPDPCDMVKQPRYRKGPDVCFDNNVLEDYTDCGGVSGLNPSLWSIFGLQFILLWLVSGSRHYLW
T3 sequence (P28223 whole entry): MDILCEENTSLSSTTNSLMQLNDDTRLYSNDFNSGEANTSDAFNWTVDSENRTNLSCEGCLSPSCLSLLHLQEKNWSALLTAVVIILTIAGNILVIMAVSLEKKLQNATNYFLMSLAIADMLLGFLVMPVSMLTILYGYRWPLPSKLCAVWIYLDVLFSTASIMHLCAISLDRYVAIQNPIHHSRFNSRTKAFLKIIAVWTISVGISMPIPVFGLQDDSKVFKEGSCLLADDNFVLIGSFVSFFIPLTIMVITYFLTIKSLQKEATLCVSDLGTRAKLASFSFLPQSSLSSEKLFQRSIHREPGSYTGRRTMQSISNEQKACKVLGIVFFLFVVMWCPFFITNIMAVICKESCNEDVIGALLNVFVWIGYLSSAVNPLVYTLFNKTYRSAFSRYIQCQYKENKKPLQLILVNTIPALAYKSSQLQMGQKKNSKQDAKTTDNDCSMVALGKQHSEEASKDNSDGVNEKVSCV

Nc1cccc(-c2ccc(CNc3ccc(F)cc3)o2)c1 [ORM‐11372]
inhibition at 1 µM [1]: 14.1% | STV and triangulation (pro‐arrhythmia markers) ([2]; 1 or 2 Hz, ORM‐11372 any tested concentration, dofetilide 0.1 μM (positive control)): no effects | APD30, APD50 and APD90 ([2]; up to 10 μM, 1‐ and 2‐Hz pacing): no significant changes | effect on calcium current (ICaL) at various test potentials ([3]; 1 µM, n=3, 5 cells): did not change | L-type calcium current amplitude, MEAN ([3]; 1 µM, test potential 0 mV, 5 cells, control -1375.4): -1268.0 pA | L-type calcium current amplitude, MEAN ([3]; 1 µM, test potential 5 mV, 5 cells, control -1319.9): -1233.1 pA | L-type calcium current amplitude, MEAN ([3]; 1 µM, test potential 10 mV, 5 cells, control -1195.5): -1106.0 pA | L-type calcium current amplitude, MEAN ([3]; 1 µM, test potential 15 mV, 5 cells, control -1031.3): -942.5 pA | L-type calcium current amplitude, MEAN ([3]; 1 µM, test potential 20 mV, 5 cells, control -839.7): -771.6 pA | L-type calcium current amplitude, MEAN ([3]; 1 µM, test potential 25 mV, 5 cells, control -655.3): -598.7 pA | L-type calcium current amplitude, MEAN ([3]; 1 µM, test potential 30 mV, 5 cells, control -482.4): -440.5 pA | L-type calcium current amplitude, MEAN ([3]; 1 µM, test potential 35 mV, 5 cells, control -321.0): -290.5 pA | L-type calcium current amplitude, MEAN ([3]; 1 µM, test potential 40 mV, 5 cells, control -184.5): -165.5 pA | L-type calcium current amplitude, MEAN ([3]; 1 µM, test potential 45 mV, 5 cells, control -86.9): -75.9 pA | L-type calcium current amplitude, MEAN ([3]; 1 µM, test potential 50 mV, 4 cells, control -2.1): -6.3 pA | L-type calcium current amplitude, MEAN ([3]; 1 µM, test potential 55 mV, 4 cells, control 73.5): 65.1 pA | L-type calcium current amplitude, MEAN ([3]; 1 µM, test potential -5 mV, 5 cells, control -1356.0): -1228.2 pA | L-type calcium current amplitude, MEAN ([3]; 1 µM, test potential -10 mV, 5 cells, control -1170.3): -1150.4 pA | L-type calcium current amplitude, MEAN ([3]; 1 µM, test potential -15 mV, 5 cells, control -958.3): -852.5 pA | L-type calcium current amplitude, MEAN ([3]; 1 µM, test potential -20 mV, 5 cells, control -659.5): -595.2 pA | L-type calcium current amplitude, MEAN ([3]; 1 µM, test potential -25 mV, 5 cells, control -416.8): -428.2 pA | L-type calcium current amplitude, MEAN ([3]; 1 µM, test potential -30 mV, 5 cells, control -247.1): -254.7 pA | L-type calcium current amplitude, MEAN ([3]; 1 µM, test potential -35 mV, 5 cells, control -143.0): -137.4 pA | effect on calcium current (ICaL) at various test potentials ([3]; 10 µM, n=4, 6 cells): significantly decreased | effect on calcium current (ICaL) at various test potentials ([3]; 10 µM, n=4, 6 cells, listed as ORM-11372): moderately decreased | L-type calcium current amplitude, MEAN ([3]; 10 µM, test potential 0 mV, 6 cells, control -1895.4): -1170.0 pA | L-type calcium current amplitude, MEAN ([3]; 10 µM, test potential 5 mV, 6 cells, control -1875.0): -1197.8 pA | L-type calcium current amplitude, MEAN ([3]; 10 µM, test potential 10 mV, 6 cells, control -1771.9): -1118.9 pA | L-type calcium current amplitude, MEAN ([3]; 10 µM, test potential 15 mV, 6 cells, control -1587.7): -1003.2 pA | L-type calcium current amplitude, MEAN ([3]; 10 µM, test potential 20 mV, 6 cells, control -1357.7): -873.9 pA | L-type calcium current amplitude, MEAN ([3]; 10 µM, test potential 25 mV, 6 cells, control -1116.0): -718.1 pA | L-type calcium current amplitude, MEAN ([3]; 10 µM, test potential 30 mV, 6 cells, control -896.3): -561.5 pA | L-type calcium current amplitude, MEAN ([3]; 10 µM, test potential 35 mV, 6 cells, control -698.8): -429.4 pA | L-type calcium current amplitude, MEAN ([3]; 10 µM, test potential 40 mV, 6 cells, control -525.3): -320.9 pA | L-type calcium current amplitude, MEAN ([3]; 10 µM, test potential 45 mV, 6 cells, control -374.5): -237.0 pA | L-type calcium current amplitude, MEAN ([3]; 10 µM, test potential 50 mV, 6 cells, control -291.0): -189.1 pA | L-type calcium current amplitude, MEAN ([3]; 10 µM, test potential 55 mV, 6 cells, control -158.4): -114.5 pA | L-type calcium current amplitude, MEAN ([3]; 10 µM, test potential -5 mV, 6 cells, control -1762.2): -1043.1 pA | L-type calcium current amplitude, MEAN ([3]; 10 µM, test potential -10 mV, 6 cells, control -1447.7): -807.4 pA | L-type calcium current amplitude, MEAN ([3]; 10 µM, test potential -15 mV, 6 cells, control -1127.6): -525.5 pA | L-type calcium current amplitude, MEAN ([3]; 10 µM, test potential -20 mV, 6 cells, control -920.0): -316.1 pA | L-type calcium current amplitude, MEAN ([3]; 10 µM, test potential -25 mV, 6 cells, control -667.6): -184.1 pA | L-type calcium current amplitude, MEAN ([3]; 10 µM, test potential -30 mV, 6 cells, control -368.9): -115.9 pA | L-type calcium current amplitude, MEAN ([3]; 10 µM, test potential -35 mV, 6 cells, control -156.2): -64.1 pA | inhibition at 1 µM ([3]; rat CMs, 1 μM, 0 mV, read-out: inhibition of inward I CaL): 7.8% | inhibition at 10 µM ([3]; test potentials 0 to 40 mV): 36 to 39% | inhibition at 10 µM ([3]; test potentials −35 to −20 mV): 59 to 69% | agonism / antagonism at 5‐HT2A receptors (h5‐HT2A receptors): Neither agonism nor antagonism
